One assay relates to Female C57BL/6 mice. Description: Mouse unilateral ureteral obstruction kidney fibrosis model. Format: in vivo. How it is done: Female C57BL/6 mice (Harlan, 20-25 g) housed 4/cage will be given free access to food and water and allowed to acclimate for at least 7 days prior to test initiation. After the habituation phase, mice undergo unilateral ureteral obstruction (UUO) surgery or sham to left kidney. Briefly, a longitudinal, upper left incision is performed to expose the left kidney. The renal artery is located and 6/0 silk thread is passed between the artery and the ureter. The thread is looped around the ureter and knotted 3 times insuring full ligation of ureter. The kidney is returned to abdomen, the abdominal muscle is sutured and the skin is stapled closed. Mice are returned to their cages and monitored daily for the duration of the experiment. Test compound or vehicle is delivered po, ip or sc daily. The route and frequency of dosing is based on previously determined pharmacokinetic properties. All animals are sacrificed using inhaled isoflurane 4, 8 or 14 days after UUO surgery. […] Kidney tissue homogenates are analyzed for collagen levels using Sircol (Biocolor Ltd, UK). Fixed kidney tissue is also stained using hematoxylin and eosin (H&E) and trichrome and kidney fibrosis is determined by quantitative, computer-assisted densitometry of collagen in […] tissue sections using light microscopy. […] The resulting data are plotted using Graphpad prism and statistical differences between groups determined.

The target in another assay is T1, human LPA1 (Homo sapiens, UniProt Q92633).
T1 construct: the full-length cDNA for human LPA1 was obtained by PCR of the reverse transcription reaction; expressed in transfected cells
T1 sequence (Q92633 whole entry): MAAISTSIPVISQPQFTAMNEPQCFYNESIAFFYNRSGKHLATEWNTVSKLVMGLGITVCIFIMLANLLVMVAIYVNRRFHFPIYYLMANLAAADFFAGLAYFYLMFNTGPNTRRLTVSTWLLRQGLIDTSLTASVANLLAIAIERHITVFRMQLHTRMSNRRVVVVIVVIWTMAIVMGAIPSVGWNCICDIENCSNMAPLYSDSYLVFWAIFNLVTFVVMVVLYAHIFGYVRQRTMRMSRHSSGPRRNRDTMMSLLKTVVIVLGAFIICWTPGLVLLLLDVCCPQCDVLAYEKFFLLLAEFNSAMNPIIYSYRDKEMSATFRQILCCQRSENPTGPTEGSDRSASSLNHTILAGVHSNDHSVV
Description: LPA1 calcium flux assay (HLPA1 Ca Flux). As to conditions: Human LPA1 expressing CHO cells, stimulated with 10 nM LPA. Format: cell-based. In a few lines:
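Compounds were fitted for IC50 from inhibition of the intracellular calcium rise evoked by 10 nM LPA. Test system: dye-loaded CHO cells stably transfected with human LPA1, serum-free overnight, with 30 min compound pretreatment at room temperature before stimulation.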

The next assay relates to Female CD-1 mice. Put plainly: Bleomycin-induced lung fibrosis model in mice. Format: in vivo. An excerpt: Female CD-1 mice (Harlan, 25-30 g) are housed 4 per cage, given free access to food and water and allowed to acclimate for at least 7 days prior to test initiation. After the habituation phase, mice are lightly anesthetized with isoflurane (5% in 100% O2) and administered with bleomycin sulfate (0.01-5 U/kg, Henry Schein) via intratracheal instillation (Cuzzocrea S et al. Am J Physiol Lung Cell Mol. Physiol. 2007 May; 292(5):L1095-104. Epub 2007 Jan. 12.). Mice are returned to their cages and monitored daily for the duration of the experiment. Test compound or vehicle is delivered po, ip or sc daily. The route and frequency of dosing is based on previously determined pharmacokinetic properties. All animals are sacrificed using inhaled isoflurane 3, 7, 14, 21 or 28 days after bleomycin instillation. Following sacrifice, mice are intubated with a 20 gauge angiocatheter attached to a 1 ml syringe. Lungs are lavaged with saline to obtain bronchoalveolar lavage fluid (BALF) and then removed and fixed in 10% neutral buffered formalin for subsequent histopathological analysis. BALF is centrifuged for 10 min at 800×g to pellet the cells and the cell supernatant removed and frozen at −80° C. for subsequent protein analysis using the DC protein assay kit (Biorad, Hercules, Calif.) and soluble collagen analysis using Sircol (Biocolor Ltd, UK). BALF is analyzed for concentrations of inflammatory, pro-fibrotic and tissue injury biomarkers including transforming growth factor β1, hyaluronic acid, tissue inhibitor of metalloproteinase-1, matrix matelloproteinase-7, connective tissue growth factor and lactate dehydrogenase activity, using commercially available ELISA. The cell pellet is re-suspended in PBS. Total cell counts are then obtained using a Hemavet hematology system (Drew Scientific, Wayne, Pa.) and differential cells counts are determined using Shandon cytospin (Thermo Scientific, Waltham, Mass.). Lung tissue is stained using hematoxylin and eosin (H&E) and trichrome and lung fibrosis.is determined by semiquantitative histopathological scoring (Ashcroft T. et al. J. Clin. Path. 1988; 41; 4, 467-470.) using light microscopy (10× magnification) and quantitative, computer-assisted densitometry of collagen in lung tissue sections using light microscopy. The data are plotted using Graphpad prism and statistical differences between groups determined.

The mark [1] stands for this setting: chronic setting (14 and 28 day), single bleomycin (1.5 units/kg) instillation.
The mark [2] stands for this setting: chronic setting, repeated bleomycin (3.0-5.0 units/kg/week) instillations.
Setting [3] is: chronic setting (14-days only), single bleomycin instillation (3.0 units).

On to `Cc1noc(-c2ccc(-c3ccc(CC(=O)O)cc3)cc2)c1NC(=O)O[C@H](C)c1ccccc1Cl` [Compound 1-88, (4′-{4-[(R)-1-(2-Chloro-phenyl)-ethoxycarbonylamino]-3-methyl-isoxazol-5-yl}-biphenyl-4-yl)-acetic acid], for which the “reduction of kidney fibrosis as compared to the untreated group” value in the assay on Female C57BL/6 mice is on record as “at least 20%”. Also, on human LPA1, the IC50 is less than 300 nM. For the same compound, the “efficacy at reducing lung tissue damage and fibrosis compared to pirfenidone” value in the assay on Female CD-1 mice (14 day mouse bleomycin model) is “superior efficacy to pirfenidone”. For the same compound, in the assay with Female CD-1 mice (acute setting (3 day)), the “MMP7 concentration in BALF” value is recorded as “significantly reduced”, the “TGFβ1 concentration in BALF” value was “significantly reduced”, the “hyaluronan concentration in BALF” value is “significantly reduced” and the “lactate dehydrogenase activity (LDH; tissue injury marker) in BALF” value was “significantly reduced”. Moreover, in the assay with Female CD-1 mice (acute setting (3 day)), the “tissue inhibitor of metalloproteinase-1 (TIMP-1; pro-fibrotic marker) concentration in BALF” value is on record as “significantly reduced” and the “total protein in broncheoalveolar lavage fluid (BALF)” value was “significantly reduced”. Moreover, in the assay with Female CD-1 mice (setting [1]), the fibrosis entry is recorded as “decreased”, the inflammatory cell influx result is “decreased” and the mouse body weight entry was “maintained”. In the assay with Female CD-1 mice (setting [2]), the lung fibrosis result is “decreased” and the pulmonary resistance entry is recorded as “decreased”.

`Cc1noc(-c2ccc(-c3ccc(CC(=O)O)cc3)cc2)c1NC(=O)O[C@H](C)c1ccccc1` [Compound 1-115]: the “reduction of kidney fibrosis as compared to the untreated group” value in the assay with Female C57BL/6 mice is given as 55%. For the same compound, the IC50 at human LPA1 is less than 300 nM. Besides, the “lactate in the BALF” value in the assay with Female CD-1 mice (acute setting (3-day)) is “reduced”. Also, in the assay on Female CD-1 mice (acute setting (3 day)), the “tissue inhibitor of metalloproteinase-1 (TIMP-1; pro-fibrotic marker) concentration in BALF” value is given as “reduced” and the “total protein in broncheoalveolar lavage fluid (BALF)” value is on record as “reduced”. For the same compound, in the assay with Female CD-1 mice (setting [3]), the fibrosis entry is recorded as “decreased” and the inflammatory cell influx result is given as “decreased”.

One may read the IC50 as the concentration that gives 50% inhibition.

The values above are taken from US20110301142A1, “ANTAGONISTS OF LYSOPHOSPHATIDIC ACID RECEPTORS” (priority 2008, published 2011).
